In patent US20240400560A1, “BICYCLIC HETEROCYCLIC DERIVATIVE HAVING VIRAL GROWTH INHIBITORY ACTIVITY AND PHARMACEUTICAL COMPOSITION CONTAINING SAME” (Shionogi & Co., Ltd., priority 2021, published 2024):
Like-named read-outs stand apart in the source and are kept apart here.

Columns and labels:
[1] = test system: SARS-CoV-2; assay: Inhibitory activity of cytopathic effect (CPE) in HEK293T/ACE2-TMPRSS2 cells; format: cell-based
[2] = biological target: SARS-CoV-2 3CL protease (Severe acute respiratory syndrome coronavirus 2, UniProt P0DTD1); assay: Inhibitory activity test against SARS-CoV-2 3CL proteases; format: biochemical
[3] = Severe acute respiratory syndrome coronavirus 2, HEK-293T, 72 h, HEK293T/ACE2-TMPRSS2 cells, cultured 3 days, CellTiter-Glo 2.0 luminescence, read-out: EC50 (50% SARS-CoV-2 infected cell death inhibitory concentration)
[4] = read-out: IC50 (50% SARS-CoV-2 3CL protease inhibitory concentration)
[5] = Severe acute respiratory syndrome coronavirus 2, HEK-293T, 72 h, read-out: EC50 (50% SARS-CoV-2 infected cell death inhibitory concentration)
[6] = IC50 (50% SARS-CoV-2 3CL protease inhibitory concentration)
[7] = Severe acute respiratory syndrome coronavirus 2, HEK-293T, 72 h, 50% SARS-CoV-2 infected cell death inhibitory concentration, HEK293T/ACE2-TMPRSS2 cells, CellTiter-Glo 2.0 after 3 days culture, read-out: EC50

| Compound | EC50 [1, 3] | IC50 [2, 4] | further results |
| --- | --- | --- | --- |
| Cl.[2H]C([2H])([2H])O[C@@H]1CCN(c2cc3c(c(OC)n2)c(=O)n(-c2cnc4cc(F)c(F)cn24)c(=O)n3-c2ccc(F)c(Cl)c2)C1 [Compound I-0962] | < 100 nM | < 100 nM | – |
| Cn1cnc(Cn2c(=O)c3c4c(c(-c5cc(C#N)ccc5Cl)cc3n(Cc3cc(F)c(F)c(F)c3)c2=O)[C@H](O)CO4)n1 [Compound I-0865] | 100 to 1000 nM | < 100 nM | – |
| COc1nc(N2CCC3(CCOC3)C2)cc2c1c(=O)n(-c1cnc3cc(F)ccn13)c(=O)n2-c1ccc(F)c(Cl)c1 (stereo not drawn) [Compound I-1060] | < 100 nM | < 100 nM | – |
| COc1nc2c(=O)n(Cc3ncn(C)n3)c(=O)n(Cc3cc(F)c(F)c(F)c3)c2cc1-c1cc(C#N)ccc1Cl [Compound I-0699] | < 100 nM | < 100 nM | – |
| O=c1c2cnc(N3[C@@H]4CC[C@H]3CNC4)cc2n(Cc2cc(F)c(F)c(Cl)c2)c(=O)n1-c1cnc2ccccn12 [Compound I-0547] | – | – | EC50 [1, 5]: < 100 nM; IC50 [2, 6]: < 100 nM |
| COc1nc(N2CC[C@@H](O)C2)cc2c1c(=O)n(-c1cnc3cc(F)c(F)cn13)c(=O)n2-c1ccc(F)c(Cl)c1 [Compound I-0967] | < 100 nM | < 100 nM | – |
| [2H]C([2H])([2H])O[C@@H]1CCN(c2cc3c(c(OC)n2)c(=O)n(-c2cncc(OCF)c2)c(=O)n3-c2ccc(F)c(F)c2)C1 [Compound I-1012] | < 100 nM | < 100 nM | – |
| COc1nc(N2CCC2)cc2c1c(=O)n(-c1cnc3cc(F)ccn13)c(=O)n2-c1ccc(F)c(Cl)c1 [Compound I-1002] | < 100 nM | < 100 nM | – |
| [2H]C([2H])([2H])O[C@@H]1CCN(c2cc3c(c(OC)n2)c(=O)n(-c2cncc(Cl)c2C)c(=O)n3-c2ccc(F)c(Cl)c2)C1 (atropisomer, axis not shown) [Compound I-0947] | – | 2.3 nM | EC50 [1, 7]: 6.34 nM |
| COc1nc(N2C[C@@H]3C[C@H]2CO3)cc2c1c(=O)n(-c1cnc3cc(F)ccn13)c(=O)n2-c1ccc(F)c(F)c1 [Compound I-0978] | – | 4.8 nM | EC50 [1, 7]: 11.8 nM |
| COc1nc2c(=O)n(-c3cnc4cc(F)ccn34)c(=O)n(Cc3cc(Cl)c(F)cc3C)c2cc1-c1cc(C(C)(C)O)ccc1Cl [Compound I-0843] | – | 7.4 nM | EC50 [1, 7]: 72.3 nM |
| O=c1c2c(=O)n(-c3cnc4cc(F)ccn34)c(=O)n(-c3ccc(F)c(Cl)c3)c2cc2n1CC[C@H]1CCCN21 [Compound I-1051] | 100 to 1000 nM | < 100 nM | – |
| COc1nc2c(=O)n(Cc3ncn(C)n3)c(=O)n(Cc3cc(C#N)ccc3C)c2cc1-c1cc(C#N)ccc1Cl [Compound I-0549] | 100 to 1000 nM | < 100 nM | – |
| CC(C)=Cc1cc2c(c(=O)n(Cc3ncn(C)n3)c(=O)n2Cc2cc(F)c(F)c(Cl)c2)c2nccnc12 [Compound I-0572] | – | 37 nM | EC50 [1, 7]: 28.3 nM |
| COc1nc(N2CCC(N(C)C)C2)cc2c1c(=O)n(-c1cnc3cc(F)ccn13)c(=O)n2-c1ccc(F)c(Cl)c1 (stereo not drawn) [Compound I-1055] | < 100 nM | < 100 nM | – |
| COc1nc(N2CCOCC2)cc2c1c(=O)n(-c1cncc(Cl)c1)c(=O)n2-c1ccc(F)c(Cl)c1 [Compound I-1013] | < 100 nM | < 100 nM | – |
| Cn1cnc(Cn2c(=O)c3c4c(c(-c5cc(C#N)ccc5Cl)cc3n(Cc3cc(F)c(F)c(F)c3)c2=O)C(F)(F)CO4)n1 [Compound I-0866] | – | 6.4 nM | EC50 [1, 7]: 15.4 nM |
| COc1nc(N2C[C@H]3C[C@@H]2CO3)cc2c1c(=O)n(-c1cnc3cc(F)ccn13)c(=O)n2-c1ccc(F)c(Cl)c1 [Compound I-0989] | < 100 nM | < 100 nM | – |
| COc1nc(N2CCC(F)(F)C2)cc2c1c(=O)n(-c1cnc3cc(F)ccn13)c(=O)n2-c1ccc(F)c(Cl)c1 [Compound I-0728] | – | 5.1 nM | EC50 [1, 7]: 7.65 nM |
| [2H]C([2H])([2H])O[C@@H]1CCN(c2cc3c(c(OC)n2)c(=O)n(-c2cnc4cc(F)ccn24)c(=O)n3-c2cc(F)c(F)c(Cl)c2)C1 [Compound I-0942] | < 100 nM | < 100 nM | – |
| COc1nc(N2CC[C@@H](O)C2)cc2c1c(=O)n(-c1cncc(F)c1)c(=O)n2-c1ccc(F)c(Cl)c1 [Compound I-0965] | < 100 nM | < 100 nM | – |
| COc1nc(N2CC[C@@H](O)C2)cc2c1c(=O)n(-c1cncc(C#N)c1)c(=O)n2-c1ccc(F)c(F)c1 [Compound I-1027] | < 100 nM | < 100 nM | – |
| COc1nc2c(=O)n(Cc3ncn(C)n3)c(=O)n(Cc3cc(Cl)c(F)cc3C)c2cc1-c1nc(C)ccc1Cl [Compound I-0581] | < 100 nM | < 100 nM | – |
| COc1nc(N(C)C)cc2c1c(=O)n(-c1cnc3cc(F)ccn13)c(=O)n2-c1ccc(F)c(Cl)c1 [Compound I-0986] | – | 6.5 nM | EC50 [1, 7]: 7.1 nM |

| Compound | EC50 [1, 3] | IC50 [2, 4] | further results |
| --- | --- | --- | --- |
| CCNc1cc2c(c(OC)n1)c(=O)n(-c1cncc(Cl)c1)c(=O)n2-c1ccc(F)c(Cl)c1 [Compound I-0966] | – | 3.8 nM | EC50 [1, 7]: 9.01 nM |
| COc1cc(-c2cc([C@H](C)O)ccc2Cl)cc2c1c(=O)n(Cc1ncn(C)n1)c(=O)n2Cc1cc(F)c(F)c(F)c1 [Compound I-0840] | < 100 nM | < 100 nM | – |
| COc1cc(-c2c(Cl)ccc3c2CCN(C)C3=O)cc2c1c(=O)n(Cc1ncn(C)n1)c(=O)n2Cc1cc(F)c(F)c(F)c1 [Compound I-0867] | – | 1.2 nM | EC50 [1, 7]: 47.9 nM |
| COc1nc(N2CCC(C)(O)C2)cc2c1c(=O)n(-c1cncc(Cl)c1)c(=O)n2-c1ccc(F)c(Cl)c1 (stereo not drawn) [Compound I-1010] | < 100 nM | < 100 nM | – |
| COc1nc2c(=O)n(Cc3ncn(C)n3)c(=O)n(Cc3cc(Cl)c(F)cc3C)c2cc1-c1nc(C(C)(C)O)ccc1Cl [Compound I-0882] | < 100 nM | < 100 nM | – |
| COc1nc(N2CC[C@@H](F)C2)cc2c1c(=O)n(-c1cnc3cc(F)ccn13)c(=O)n2Cc1cc(F)c(F)c(F)c1 [Compound I-0673] | < 100 nM | < 100 nM | – |
| CNC(=O)[C@@H]1CCN(c2cc3c(c(OC)n2)c(=O)n(-c2cnc4cc(F)ccn24)c(=O)n3-c2ccc(F)c(Cl)c2)C1 [Compound I-1000] | < 100 nM | < 100 nM | – |
| COc1nc(N2CC[C@@H](C#N)C2)cc2c1c(=O)n(-c1cncc(OC(F)F)c1)c(=O)n2-c1ccc(F)c(F)c1 [Compound I-0995] | < 100 nM | < 100 nM | – |
| COc1nc2c(=O)n(Cc3ncn(C)n3)c(=O)n(Cc3cc(Cl)c(F)cc3C)c2cc1-c1nc(C(F)F)ccc1Cl [Compound I-0884] | < 100 nM | < 100 nM | – |
| [2H]C([2H])([2H])O[C@@H]1CCN(c2cc3c(c(OC)n2)c(=O)n(-c2cncc(C#N)c2)c(=O)n3-c2ccc(F)c(F)c2)C1 [Compound I-1026] | < 100 nM | < 100 nM | – |
| [2H]C([2H])([2H])O[C@@H]1CCN(c2cc3c(c(OC)n2)c(=O)n(-c2cnc4cc(F)ccn24)c(=O)n3-c2ccc(F)c(C(F)F)c2)C1 [Compound I-0981] | < 100 nM | < 100 nM | – |
| COc1cc(-c2cc(C#N)ccc2Cl)cc2c1c(=O)n(-c1cnc3ccccn13)c(=O)n2Cc1cc(F)c(F)c(F)c1 [Compound I-0660] | < 100 nM | < 100 nM | – |
| COc1nc(N2CC[C@@H](OC(F)F)C2)cc2c1c(=O)n(-c1cnc3cc(F)ccn13)c(=O)n2-c1ccc(F)c(Cl)c1 [Compound I-0763] | < 100 nM | < 100 nM | – |
| COc1nc(N2CCC(F)(F)C2)cc2c1c(=O)n(-c1cnc3cc(F)ccn13)c(=O)n2-c1ccc(F)c(C(F)F)c1 [Compound I-1015] | < 100 nM | < 100 nM | – |
| COc1nc(N2[C@@H]3CC[C@H]2CNC3)cc2c1c(=O)n(-c1cnc3ccc(Cl)cn13)c(=O)n2-c1ccc(F)c(Cl)c1 [Compound I-0806] | – | – | EC50 ([1]; Severe acute respiratory syndrome coronavirus 2, HEK-293T, 72 h): 25.1 nM; IC50 [2, 6]: 3.9 nM |
| COc1nc(NC(C)C)cc2c1c(=O)n(-c1cnc3cc(F)ccn13)c(=O)n2-c1ccc(F)c(Cl)c1 [Compound I-0651] | – | 8.5 nM | EC50 [1, 7]: 13 nM |
| COc1nc(N2CC[C@@H](C#N)C2)cc2c1c(=O)n(-c1cnc3cc(F)ccn13)c(=O)n2-c1ccc(F)c(F)c1 [Compound I-0959] | < 100 nM | < 100 nM | – |
| Cn1cnc(Cn2c(=O)c3c4c(c(-c5cnccc5Cl)cc3n(Cc3cc(F)c(F)c(Cl)c3)c2=O)CCO4)n1 [Compound I-0563] | < 100 nM | < 100 nM | – |
| COc1nc(N2CC[C@@H](C#N)C2)cc2c1c(=O)n(-c1cncc(C(F)F)c1)c(=O)n2-c1ccc(F)c(Cl)c1 [Compound I-0945] | < 100 nM | < 100 nM | – |
| COc1nc(N2CC[C@@H](NC(C)=O)C2)cc2c1c(=O)n(-c1cncc(Cl)c1)c(=O)n2-c1ccc(F)c(Cl)c1 [Compound I-0994] | < 100 nM | < 100 nM | – |
| COc1cc(N2[C@@H]3CC[C@H]2CNC3)cc2c1c(=O)n(-c1cnc3ccccn13)c(=O)n2Cc1cc(F)c(F)c(F)c1 [Compound I-0666] | – | – | EC50 [1, 5]: 100 to 1000 nM; IC50 [2, 6]: < 100 nM |
| COc1nc2c(=O)n(Cc3ncn(C)n3)c(=O)n(Cc3cc(C#N)c(F)cc3Cl)c2cc1-c1cc(C#N)ccc1Cl [Compound I-0722] | < 100 nM | < 100 nM | – |
| COc1cc(-c2cc(C#N)ccc2Cl)cc2c1c(=O)n(-c1cnc3ccccn13)c(=O)n2Cc1cc(F)c(F)c(F)c1 [Compound I-0661] | – | < 100 nM | EC50 ([1]; HEK293T/ACE2-TMPRSS2 cells, cultured 3 days, CellTiter-Glo 2.0 luminescence, read-out: EC50 (50% SARS-CoV-2 infected cell death inhibitory concentration)): < 100 nM |
| CCNc1cc2c(c(OC)n1)c(=O)n(-c1cnc3cc(F)ccn13)c(=O)n2-c1ccc(F)c(Cl)c1 [Compound I-0996] | < 100 nM | < 100 nM | – |
